“Also recorded” adds a separate entry of the source.
Assays:
Format in all cases: cell-based
[1] = tested on: human NHIK 3025/MEM cervix carcinoma cells; assay: Rate of protein synthesis ([3H]-valine incorporation) in NHIK 3025 cells; conditions: NHIK 3025/MEM cells, 1 hour treatment with [3H]-valine, compared to prior art compound 15
Text: Human cells of the established line NHIK 3025, originating from a cervical carcinoma in situ (Nordbye, K. and Oftebro, R., Exp. Cell Res., 58: 458, (1969)), (Oftebro, R. and Nordbye, K., Exp. Cell Res., 58: 459-460, (1969)) were cultivated in medium E2a (Puck et al., J. Exp. Med., 106: 145-165, (1957)) supplemented with 20% human (prepared at the laboratory) and 10% horse serum (Grand Island Biological Co.).
(§1) The cells are routinely grown as monolayers in tissue culture flasks. The cells were kept in continuous exponential growth by frequent reculturing, i.e. every second or third day.
(§2) During reculturing as well as during experiments the cells were kept in a walk-in incubator at 37°C.
(§3) The rate of protein synthesis was calculated as described previously (Rønning et al., J. Cell Physiol., 107: 47-57, (1981)). Briefly, cellular protein was labeled to saturation during a 2-day preincubation with [¹⁴C]-valine of constant specific radioactivity (0.5 Ci/mol) prior to the experiment. This was achieved by using a high concentration of valine so that the dilution of [¹⁴C]- valine by intracellular valine and by proteolytically generated valine will be negligible (Rønning et al., Exp. Cell Res., 123: 63-72, (1979)), thus keeping the specific radioactivity at a constant level. The rate of protein synthesis was calculated from the incorporation of [³H]-valine of constant specific activity. The incorporated measurements were related to the total of [¹⁴C]-radioactivity in protein at the beginning of the respective measurement periods and expressed as the percentage per hr (Rønning et al., J. Cell. Physiol., 107: 47-57, (1981)).
In Figure 1 the rate of protein synthesis (as % of control rate) is shown in relation to the concentration of imine used in the treatment of human NHIK 3025/MEM cervix carcinoma cells cultivated in vitro. The treatment period was for 1 hour during which the cell culture medium contained [³H]-valine in addition to the test compound. […]

[2] = tested on: non-malignant cell line V79 (Chinese hamster lung cells); assay: Rate of protein synthesis in V79 cells; conditions: Figure 4
Text: V79 379-A cells were provided by Dr. Laszlo Révész (Karolinska Institutet, Stockholm) in 1976 and have since been cultivated in MEM medium (Hank's salts) supplemented with 15% newborn bovine serum. These cells are a clone of the line V79, isolated from Chinese hamster normal lung tissue and established in culture by Ford and Yerganian (see J. Natl. Cancer Inst. 21, (1958) 393-425).
as §1, §2, §3
In Figure 4 the effect of two preferred imines according to the invention, compounds 3 and 7 , on the rate of protein synthesis in the non-malignant cell line V79 (Chinese hamster lung cells).

[3] = tested on: murine B16 melanoma cells; assay: Rate of protein synthesis in B16 melanoma cells; conditions: Figure 3, compared to prior art compound 15
Experimental: as §3
In Figure 3, the effect of two imine compounds, 3 and 7, according to the invention and the effect of the prior art compound 15 on the protein synthesis of murine B16 melanoma cells is shown.

[4] = tested on: 3T3 cells (derived from mouse embryo); assay: Rate of protein synthesis in 3T3 cells; conditions: Figure 5
Text: Balb 3T3-A cells were isolated by Aaronsen and Todaro (J. Cell Physiol. 72, (1968)) 41-148) and were provided by Dr. T.Ege (Karolinska Institutet, Stockholm) in 1980 and have since been cultivated in MEM medium (Hank's salts) supplemented with 15% newborn bovine serum.
as §1, §2, §3
In Figure 5 the effect of compounds 3 and 7 on the rate of the protein synthesis of 3T3 cells (derived from mouse embryo) is shown.

[5] = tested on: human pancreatic carcinoma cell line PANC-1; assay: Rate of protein synthesis and cell inactivation ([14C]-radioactivity) in PANC-1 cells; conditions: for cell inactivating effect at concentrations (decline in [¹⁴C]-radioactivity): decrease in [14C]-radioactivity is a sign of cell death
Experimental: PANC-1 cells were purchased from the American Type Culture Collection (ATCC) in 1990. These cells were derived from a human adenocarcinoma of ductal origin (Lieber et al, Int. J. Cancer 15, (1975) 741-747).
as §1, §2, §3
In Figures 6a) and b) the human pancreatic carcinoma cell line PANC-1, cultivated in the medium MEM (with new born calf serum), was used .
In Figures 7a) and b) the human pancreatic carcinoma cell line PANC-1, cultivated in the medium E2a (with human and horse serum), was used .

O=C(O)CCCCCN=Cc1cccc([N+](=O)[O-])c1 [Compound 3, 6-(3-Nitrobenzylidene-Amino)-Hexanoic Acid]
rate of protein synthesis (as % of control rate) ([1]; Figure 1): inhibited to a greater degree; also recorded: strongest inhibition on protein synthesis | effect on the rate of protein synthesis [2]: significantly inhibit protein synthesis | effect on the protein synthesis [3]: much stronger protein synthesis inhibiting effect | effect on the rate of the protein synthesis [4]: strong protein synthesis inhibition

COC(=O)c1ccc(C=NCCCCCCCCCCC(=O)O)cc1 [Compound 4, 11-(4-Carbomethoxy-benzylidene-Amino) -Undecanoic Acid]
rate of protein synthesis (as % of control rate) ([1]; Figure 1): inhibited to a greater degree; also recorded: strongest inhibition on protein synthesis

O=[N+]([O-])c1cccc(C=NCCCCO)c1 [Compound 7, 4-(3-Nitrobenzylidene-Amino)-Butan-1-ol]
rate of protein synthesis (as % of control rate) ([1]; Figure 2): inhibited to a greater degree; also recorded: strongest inhibition on protein synthesis | effect on the rate of protein synthesis [2]: significantly inhibit protein synthesis; also recorded: slightly more effective than compound 3 | effect on the protein synthesis [3]: much stronger protein synthesis inhibiting effect | effect on the rate of the protein synthesis [4]: strong protein synthesis inhibition

[2H]C(=NCCCN(C)C)c1ccccc1 [Compound 14, 1-(Benzylidene-d1-Amino)-3-(Dimethyl-amino)-Propane]
cell inactivating effect at concentrations (decline in [¹⁴C]-radioactivity) ([5]; Figure 6b, PANC-1 in medium MEM): above 2 mM | cell inactivating effect at concentrations (decline in [¹⁴C]-radioactivity) ([5]; Figure 7b, PANC-1 in medium E2a): above 2 mM

[2H]C1(c2ccccc2)OC[C@@H]([C@H]2OC(=O)C(O)=C2O)O1 (stereo partly drawn) [Compound 15, Sodium 5,6-0-Benzylidene-d1-L-Ascorbate, reference compound]
effect on the rate of protein synthesis [2]: little or no inhibition | protein synthesis inhibiting activity ([5]; Figures 6a/6b, PANC-1 in medium MEM (with new born calf serum)): little protein synthesis inhibiting activity | protein synthesis inhibiting activity ([5]; Figures 7a/7b, PANC-1 in medium E2a (with human and horse serum)): little protein synthesis inhibiting activity | effect on the rate of the protein synthesis [4]: little effect

From patent publication EP0609032A1, “Aromatic imine compounds, pharmaceutical composition thereof, useful as protein synthesis inhibitors” (NORSK HYDRO A/S, priority 1993, dated 1994)
